Measured values from ChEMBL document CHEMBL1743141, “Membrane transporters in drug development” (Nat Rev Drug Discov, 2010).

Legend:
Type in all cases: ADME
[1] = biological target: T1, Solute carrier family 22 member 1 (Homo sapiens, UniProt O15245); experiment: Substrates of transporters of clinical importance in the absorption and disposition of drugs, OCT1
T1 sequence (O15245 whole entry): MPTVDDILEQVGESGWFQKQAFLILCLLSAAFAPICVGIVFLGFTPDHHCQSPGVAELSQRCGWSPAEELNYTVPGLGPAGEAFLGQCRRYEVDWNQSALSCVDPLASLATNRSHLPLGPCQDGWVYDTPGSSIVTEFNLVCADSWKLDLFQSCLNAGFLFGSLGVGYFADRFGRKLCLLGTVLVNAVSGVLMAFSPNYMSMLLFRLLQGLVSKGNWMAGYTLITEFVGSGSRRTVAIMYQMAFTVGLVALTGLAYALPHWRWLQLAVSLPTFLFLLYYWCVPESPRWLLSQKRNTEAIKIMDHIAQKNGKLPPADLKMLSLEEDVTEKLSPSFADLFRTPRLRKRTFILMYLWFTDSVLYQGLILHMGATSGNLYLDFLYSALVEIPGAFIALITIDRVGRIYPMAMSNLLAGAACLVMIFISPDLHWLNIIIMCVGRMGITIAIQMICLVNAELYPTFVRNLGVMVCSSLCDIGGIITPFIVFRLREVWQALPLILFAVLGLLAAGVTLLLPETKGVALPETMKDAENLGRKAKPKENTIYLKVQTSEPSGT

[2] = biological target: T2, Solute carrier family 22 member 2 (Homo sapiens, UniProt O15244); experiment: Substrates of transporters of clinical importance in the absorption and disposition of drugs, OCT2
T2 sequence (O15244 whole entry): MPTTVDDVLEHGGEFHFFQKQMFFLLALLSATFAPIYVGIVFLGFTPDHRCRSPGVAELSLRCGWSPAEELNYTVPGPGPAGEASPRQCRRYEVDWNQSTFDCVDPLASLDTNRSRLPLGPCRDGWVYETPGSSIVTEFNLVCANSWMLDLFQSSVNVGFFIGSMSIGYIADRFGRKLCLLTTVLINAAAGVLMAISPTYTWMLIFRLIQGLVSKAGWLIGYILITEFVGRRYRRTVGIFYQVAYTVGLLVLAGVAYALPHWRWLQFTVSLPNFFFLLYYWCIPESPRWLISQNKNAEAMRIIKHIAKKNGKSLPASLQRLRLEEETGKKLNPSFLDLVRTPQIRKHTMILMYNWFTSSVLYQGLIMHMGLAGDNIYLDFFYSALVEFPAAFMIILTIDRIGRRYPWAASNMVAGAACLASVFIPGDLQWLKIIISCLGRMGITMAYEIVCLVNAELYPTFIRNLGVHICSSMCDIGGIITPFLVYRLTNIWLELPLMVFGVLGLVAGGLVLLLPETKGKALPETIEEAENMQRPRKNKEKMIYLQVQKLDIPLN

[3] = biological target: T3, Multidrug and toxin extrusion protein 2 (Homo sapiens, UniProt Q86VL8); experiment: Substrates of transporters of clinical importance in the absorption and disposition of drugs, MATE2-K
T3 sequence (Q86VL8 whole entry): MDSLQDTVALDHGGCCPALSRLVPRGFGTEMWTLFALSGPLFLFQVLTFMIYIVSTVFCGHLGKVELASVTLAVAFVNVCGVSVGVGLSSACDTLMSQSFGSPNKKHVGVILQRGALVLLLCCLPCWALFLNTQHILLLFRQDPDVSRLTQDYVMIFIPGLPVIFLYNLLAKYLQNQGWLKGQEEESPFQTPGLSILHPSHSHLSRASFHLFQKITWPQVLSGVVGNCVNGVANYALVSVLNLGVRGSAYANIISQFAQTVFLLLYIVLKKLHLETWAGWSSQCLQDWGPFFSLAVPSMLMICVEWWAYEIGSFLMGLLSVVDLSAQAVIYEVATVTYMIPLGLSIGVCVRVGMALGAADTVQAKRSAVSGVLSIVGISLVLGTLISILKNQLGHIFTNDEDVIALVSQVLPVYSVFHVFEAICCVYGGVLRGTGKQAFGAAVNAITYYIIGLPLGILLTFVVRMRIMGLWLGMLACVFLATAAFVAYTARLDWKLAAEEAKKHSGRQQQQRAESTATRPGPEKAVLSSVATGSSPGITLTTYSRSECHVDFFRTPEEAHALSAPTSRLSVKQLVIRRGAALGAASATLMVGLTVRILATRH

[4] = biological target: T4, Multidrug and toxin extrusion protein 1 (Homo sapiens, UniProt Q96FL8); experiment: Substrates of transporters of clinical importance in the absorption and disposition of drugs, MATE1
T4 sequence (Q96FL8 whole entry): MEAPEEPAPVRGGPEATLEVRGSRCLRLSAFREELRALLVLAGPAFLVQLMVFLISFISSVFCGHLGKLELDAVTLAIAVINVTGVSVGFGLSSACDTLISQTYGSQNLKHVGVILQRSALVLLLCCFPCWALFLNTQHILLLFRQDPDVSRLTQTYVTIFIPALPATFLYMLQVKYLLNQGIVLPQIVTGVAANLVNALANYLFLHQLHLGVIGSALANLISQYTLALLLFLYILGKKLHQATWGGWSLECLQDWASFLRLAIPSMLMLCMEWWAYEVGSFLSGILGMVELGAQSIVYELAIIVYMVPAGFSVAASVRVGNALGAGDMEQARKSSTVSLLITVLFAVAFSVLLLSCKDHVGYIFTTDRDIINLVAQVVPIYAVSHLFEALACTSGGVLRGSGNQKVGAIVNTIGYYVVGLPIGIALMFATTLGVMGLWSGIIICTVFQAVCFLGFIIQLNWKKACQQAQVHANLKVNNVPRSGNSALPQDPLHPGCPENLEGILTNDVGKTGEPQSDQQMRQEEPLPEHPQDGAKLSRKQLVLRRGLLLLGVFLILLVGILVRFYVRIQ

[5] = biological target: ATP-binding cassette sub-family C member 2 (Homo sapiens, UniProt Q92887); experiment: Substrates of transporters of clinical importance in the absorption and disposition of drugs, MRP2
[6] = biological target: T5, Broad substrate specificity ATP-binding cassette transporter ABCG2 (Homo sapiens, UniProt Q9UNQ0); experiment: Substrates of transporters of clinical importance in the absorption and disposition of drugs, BCRP
T5 sequence (Q9UNQ0 whole entry): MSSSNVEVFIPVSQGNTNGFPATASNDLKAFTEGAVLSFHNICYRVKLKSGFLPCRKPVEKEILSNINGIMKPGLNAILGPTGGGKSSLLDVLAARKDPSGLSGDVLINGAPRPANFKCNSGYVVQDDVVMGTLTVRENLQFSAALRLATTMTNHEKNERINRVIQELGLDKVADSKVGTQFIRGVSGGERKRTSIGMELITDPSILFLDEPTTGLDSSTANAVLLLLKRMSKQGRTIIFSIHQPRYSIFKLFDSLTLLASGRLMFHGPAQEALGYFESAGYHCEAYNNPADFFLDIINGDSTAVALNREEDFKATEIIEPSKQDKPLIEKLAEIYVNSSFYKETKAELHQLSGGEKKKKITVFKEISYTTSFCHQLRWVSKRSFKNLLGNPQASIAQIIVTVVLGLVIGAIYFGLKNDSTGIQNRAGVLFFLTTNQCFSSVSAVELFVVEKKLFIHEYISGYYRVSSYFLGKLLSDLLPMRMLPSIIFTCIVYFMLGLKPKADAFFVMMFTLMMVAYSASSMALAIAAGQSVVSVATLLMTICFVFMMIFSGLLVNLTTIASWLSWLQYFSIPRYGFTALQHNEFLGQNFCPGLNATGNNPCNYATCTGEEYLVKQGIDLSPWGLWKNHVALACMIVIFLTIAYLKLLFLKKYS

[7] = biological target: T6, Solute carrier organic anion transporter family member 1A2 (Homo sapiens, UniProt P46721); experiment: Inhibitors of transporters of clinical importance in the absorption and disposition of drugs, OATP1A2
T6 sequence (P46721 whole entry): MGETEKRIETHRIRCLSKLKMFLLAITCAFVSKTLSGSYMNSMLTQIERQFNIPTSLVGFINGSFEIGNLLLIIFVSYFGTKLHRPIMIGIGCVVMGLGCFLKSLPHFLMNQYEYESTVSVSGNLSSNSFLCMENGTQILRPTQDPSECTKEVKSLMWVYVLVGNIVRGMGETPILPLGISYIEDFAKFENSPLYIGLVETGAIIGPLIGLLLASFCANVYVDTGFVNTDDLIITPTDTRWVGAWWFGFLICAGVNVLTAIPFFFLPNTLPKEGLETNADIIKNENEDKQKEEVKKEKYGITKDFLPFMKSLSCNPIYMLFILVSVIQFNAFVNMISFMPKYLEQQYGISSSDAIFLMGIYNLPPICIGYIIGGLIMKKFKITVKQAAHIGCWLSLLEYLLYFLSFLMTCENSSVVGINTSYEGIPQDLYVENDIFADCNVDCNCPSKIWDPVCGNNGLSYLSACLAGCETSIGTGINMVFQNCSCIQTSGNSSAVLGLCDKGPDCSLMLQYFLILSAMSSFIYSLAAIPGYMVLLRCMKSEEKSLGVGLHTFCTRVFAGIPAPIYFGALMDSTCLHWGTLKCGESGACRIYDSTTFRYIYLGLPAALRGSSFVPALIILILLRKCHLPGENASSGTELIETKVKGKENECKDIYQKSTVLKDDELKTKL

[8] = biological target: T7, ATP-binding cassette sub-family C member 4 (Homo sapiens, UniProt O15439); experiment: Substrates of transporters of clinical importance in the absorption and disposition of drugs, MRP4
T7 sequence (O15439 whole entry): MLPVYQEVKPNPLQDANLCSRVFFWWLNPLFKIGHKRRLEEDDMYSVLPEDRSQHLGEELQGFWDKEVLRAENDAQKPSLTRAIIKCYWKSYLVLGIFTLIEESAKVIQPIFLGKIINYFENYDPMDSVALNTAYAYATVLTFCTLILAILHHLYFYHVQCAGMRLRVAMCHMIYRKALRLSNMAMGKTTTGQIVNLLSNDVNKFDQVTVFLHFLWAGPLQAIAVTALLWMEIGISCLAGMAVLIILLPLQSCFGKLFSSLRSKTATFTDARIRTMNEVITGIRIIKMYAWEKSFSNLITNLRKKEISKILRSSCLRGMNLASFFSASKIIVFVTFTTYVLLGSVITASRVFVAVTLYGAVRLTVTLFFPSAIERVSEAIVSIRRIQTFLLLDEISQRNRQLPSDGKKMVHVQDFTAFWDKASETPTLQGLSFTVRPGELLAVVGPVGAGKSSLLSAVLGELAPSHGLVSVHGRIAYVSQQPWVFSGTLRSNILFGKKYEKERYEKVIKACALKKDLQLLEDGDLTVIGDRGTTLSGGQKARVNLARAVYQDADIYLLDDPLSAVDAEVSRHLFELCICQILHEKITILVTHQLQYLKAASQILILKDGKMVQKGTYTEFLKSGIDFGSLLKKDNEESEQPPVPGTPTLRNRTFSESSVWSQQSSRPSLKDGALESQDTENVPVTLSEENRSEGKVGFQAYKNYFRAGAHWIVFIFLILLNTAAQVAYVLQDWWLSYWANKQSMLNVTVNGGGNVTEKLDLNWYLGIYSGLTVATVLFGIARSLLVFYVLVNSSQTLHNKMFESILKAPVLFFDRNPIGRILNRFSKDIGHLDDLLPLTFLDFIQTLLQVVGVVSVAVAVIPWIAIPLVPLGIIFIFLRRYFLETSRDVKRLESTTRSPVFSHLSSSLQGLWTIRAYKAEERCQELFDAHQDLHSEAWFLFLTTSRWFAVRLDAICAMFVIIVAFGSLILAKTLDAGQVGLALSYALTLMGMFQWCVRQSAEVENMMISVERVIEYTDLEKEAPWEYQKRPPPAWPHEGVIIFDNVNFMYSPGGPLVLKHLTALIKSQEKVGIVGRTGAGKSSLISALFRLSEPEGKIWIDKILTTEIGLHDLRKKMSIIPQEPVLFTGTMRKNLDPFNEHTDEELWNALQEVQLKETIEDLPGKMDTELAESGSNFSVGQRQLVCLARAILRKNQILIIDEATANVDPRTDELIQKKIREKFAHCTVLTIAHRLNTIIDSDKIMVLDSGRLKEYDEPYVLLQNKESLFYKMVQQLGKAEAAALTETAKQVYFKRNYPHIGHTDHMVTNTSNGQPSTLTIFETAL

Chain of ATP-binding cassette sub-family C member 2 (Q92887 whole entry): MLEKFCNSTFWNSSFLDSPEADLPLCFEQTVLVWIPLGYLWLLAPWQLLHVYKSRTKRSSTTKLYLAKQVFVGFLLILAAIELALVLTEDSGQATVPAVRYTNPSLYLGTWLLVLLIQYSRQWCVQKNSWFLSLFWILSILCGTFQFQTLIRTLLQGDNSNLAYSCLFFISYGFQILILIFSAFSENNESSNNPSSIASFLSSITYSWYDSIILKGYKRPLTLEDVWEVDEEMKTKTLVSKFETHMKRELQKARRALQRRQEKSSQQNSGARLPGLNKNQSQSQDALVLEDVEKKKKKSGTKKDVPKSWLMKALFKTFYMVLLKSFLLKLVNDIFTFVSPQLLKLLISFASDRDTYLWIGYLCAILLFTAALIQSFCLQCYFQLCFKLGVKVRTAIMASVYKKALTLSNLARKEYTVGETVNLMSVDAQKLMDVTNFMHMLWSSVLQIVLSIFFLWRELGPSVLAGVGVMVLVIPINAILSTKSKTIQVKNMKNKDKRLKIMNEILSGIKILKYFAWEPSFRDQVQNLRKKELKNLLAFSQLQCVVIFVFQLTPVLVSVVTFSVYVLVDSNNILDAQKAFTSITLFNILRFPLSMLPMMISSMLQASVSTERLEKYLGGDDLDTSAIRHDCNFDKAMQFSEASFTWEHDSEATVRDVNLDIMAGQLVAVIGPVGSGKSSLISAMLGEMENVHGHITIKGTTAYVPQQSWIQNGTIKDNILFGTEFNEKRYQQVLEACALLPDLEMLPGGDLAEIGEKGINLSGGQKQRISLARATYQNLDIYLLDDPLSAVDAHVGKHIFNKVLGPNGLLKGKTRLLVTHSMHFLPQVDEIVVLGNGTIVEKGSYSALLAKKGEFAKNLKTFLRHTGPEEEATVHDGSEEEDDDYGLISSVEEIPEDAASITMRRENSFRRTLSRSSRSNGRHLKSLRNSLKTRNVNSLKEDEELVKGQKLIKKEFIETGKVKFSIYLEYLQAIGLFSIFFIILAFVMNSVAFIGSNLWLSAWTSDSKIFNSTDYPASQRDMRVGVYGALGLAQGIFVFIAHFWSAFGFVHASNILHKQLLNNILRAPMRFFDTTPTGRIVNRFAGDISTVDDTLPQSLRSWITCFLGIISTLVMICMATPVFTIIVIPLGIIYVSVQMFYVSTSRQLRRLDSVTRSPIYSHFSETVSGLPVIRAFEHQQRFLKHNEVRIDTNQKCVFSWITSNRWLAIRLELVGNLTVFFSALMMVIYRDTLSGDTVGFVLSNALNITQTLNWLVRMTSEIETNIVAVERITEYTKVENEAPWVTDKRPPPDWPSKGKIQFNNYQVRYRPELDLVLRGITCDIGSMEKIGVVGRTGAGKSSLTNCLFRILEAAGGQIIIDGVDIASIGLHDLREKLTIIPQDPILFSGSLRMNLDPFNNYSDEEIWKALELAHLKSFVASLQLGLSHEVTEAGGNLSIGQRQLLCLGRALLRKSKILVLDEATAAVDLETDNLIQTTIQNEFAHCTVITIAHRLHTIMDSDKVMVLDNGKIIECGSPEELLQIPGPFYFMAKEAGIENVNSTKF

| Structure (SMILES) | Activity [1] | Activity [2] | Activity [7] | Activity [8] | Activity [3] | Activity [4] | Activity [5] | Activity [6] |
| --- | --- | --- | --- | --- | --- | --- | --- | --- |
| C[n+]1ccccc1 | transporter substrate | transporter substrate |  |  | transporter substrate | transporter substrate |  |  |
| O=C1c2c(O)ccc(O)c2C(=O)c2c(NCCNCCO)ccc(NCCNCCO)c21 [MITOXANTRONE] |  |  |  |  |  |  | transporter substrate | transporter substrate |
| CC[N+](CC)(CC)CC [TETRYLAMMONIUM] | transporter substrate | transporter substrate |  |  | transporter substrate | transporter substrate |  |  |

More lines, main results first:

| Activity [1] | Activity [2] | Activity [7] | Activity [8] | Structure (SMILES) | Activity [3] | Activity [4] | Activity [5] | Activity [6] |
| --- | --- | --- | --- | --- | --- | --- | --- | --- |
| transporter substrate | transporter substrate |  |  | CN(C)C(=N)N=C(N)N [METFORMIN] | transporter substrate | transporter substrate |  |  |
|  |  | transporter inhibitor |  | C[C@@H]1O[C@@H](O[C@H]2[C@H](Oc3cc(O)c4c(c3)O[C@H](c3ccc(O)cc3)CC4=O)O[C@H](CO)[C@@H](O)[C@@H]2O)[C@H](O)[C@H](O)[C@H]1O [NARINGIN] |  |  |  |  |
|  |  |  | transporter substrate | CC[C@@]1(O)C(=O)OCc2c1cc1n(c2=O)Cc2cc3c(CN(C)C)c(O)ccc3nc2-1 [TOPOTECAN] |  |  |  | transporter substrate |
